# Measured values from patent publication US20080146633A1, “COMPOSITIONS FOR SKIN LIGHTENING AND TONING DOWN PIGMENT DISORDERS, COMPRISING CREATININE AND/OR CREATININE DERIVATIVES AS ACTIVE SUBSTANCES” (GOLDSCHMIDT GMBH, priority 2002, published 2008).
# How the values were obtained:
# fungi tyrosinase = assay: Tyrosinase inhibition (L-Dopa to dopachrome, absorption at 475 nm); type: biochemical; conditions: 15 min at room temperature
# Experimental: The inhibition of fungi tyrosinase was determined as a function of different concentrations of creatinine (0.05 to 1.7% by volume) by reference to the enzymatic reaction of L-Dopa to dopachrome. The absorption maximum of the dopachrome is at a wavelength of 475 nm. The tyrosinase inhibition is calculated in accordance with the following equation:
# Inhibition [%]={100−[(Esample*100)/Ereference]} (1)
# each measurement was carried out in duplicate, with parallel mixtures. The variation of the method is ±10%,
# 25 mM acetate buffer (pH 4.9): dilute from 0.2 M acetate buffer (pH 4.9) (Sigma) Phosphate buffer (pH 7): Titrosol (Merck) 20 mM L-DOPA (in acetate buffer) Tyrosinase stock solution: 40 U/ml of phosphate buffer Stock solution of creatinine: 0.45 M in phosphate buffer
# The DOPA solution and the tyrosinase stock solution were prepared only prior to the start of the experiment. The L-DOPA solutions should be stored in a dark place and in vessels which can be sealed tightly.
# 500 μL of DOPA stock solution 400 μL of creatinine solution or phosphate buffer (reference) 100 μL of tyrosinase stock solution Following the addition of the enzyme, the samples were thoroughly mixed using a “Reax Top” (Heidolph). Following an incubation period of 15 min at room temperature, the absorption at 475 nm was determined. The measurement was carried out using a “Helios Beta” spectrophotometer from Unicam.
# [1] = tested on: MelanoDerm in vitro skin model (melanocytes); assay: In vitro skin model test (MelanoDerm), melanin determined quantitatively; type: cell-based; conditions: for Melanin: applied every 48 hours
# Text: The skin-lightening effect was validated on an in vitro skin model, the MelanoDerm™ from MatTek. This model is very similar in structure and function to the natural skin and has the cell types relevant in the epidermis including the melanocytes, which are responsible for the synthesis of the main pigment melanin. Further information can be found, for example, in M. K. King et al. in Proceedings of Society of Cosmetic Chemists Annual Scientific Meeting and Technology Showcase 1998, 35-36. Creatinine, kojic acid dipalmitate as positive standard and water as negative control were applied every 48 hours over a period of 21 days to the in vitro skin model.
# The melanin produced by the melanocytes was determined quantitatively on the 17th and 21st day.
SMILES,Tyrosinase inhibition (%) (fungi tyrosinase; creatinine 0.05 % by volume),Tyrosinase inhibition (%) (fungi tyrosinase; creatinine 0.30 % by volume),Tyrosinase inhibition (%) (fungi tyrosinase; creatinine 0.60 % by volume),Tyrosinase inhibition (%) (fungi tyrosinase; creatinine 0.90 % by volume),Tyrosinase inhibition (%) (fungi tyrosinase; creatinine 1.10 % by volume),Tyrosinase inhibition (%) (fungi tyrosinase; creatinine 1.40 % by volume),Tyrosinase inhibition (%) (fungi tyrosinase; creatinine 1.70 % by volume),Melanin ([1]; Day 17) [µg],Melanin ([1]; Day 21) [µg],Effectiveness compared with kojic acid dipalmitate (positive standard) ([1]; upon prolonged application)
"CN1CC(=O)NC1=N [Creatinine, 2-imino-N-methylhydantoin]",1.77,9.97,14.21,20.75,24.81,28.15,32.18,94.5,12.67,twice as effective
"CCCCCCCCCCCCCCCC(=O)OCc1cc(=O)c(OC(=O)CCCCCCCCCCCCCCC)co1 [Kojic dipalmitate, kojic acid dipalmitate, reference compound]",,,,,,,,102.5,82.67,
